# Literature values in the CATMoS acute toxicity set (Mansouri et al. 2021).
# Where “and” joins values, the source holds several entries; their conditions need not be identical. Equal entries are not always repeated.
# Assay: rat acute oral toxicity
# Settings: in vivo
row,SMILES,LD50
1,COC(=O)c1c(Cl)c(Cl)c(C(=O)OC)c(Cl)c1Cl,3000 mg/kg
2,CC(=O)Nc1ccc(OCC(O)CNC(C)C)cc1 (configuration not stated),3460 mg/kg
3,Cc1ccc(N=C=O)cc1,1600 mg/kg
4,O=C=NCC1CCC(CN=C=O)CC1 (configuration not stated),1600 mg/kg
5,Nc1cc(Cl)c(N)cc1Cl,1750 mg/kg
6,COc1ccc(SC#N)c([N+](=O)[O-])c1,3540 mg/kg
7,COP(=O)(OC)OC(=CCl)c1cc(Cl)c(Cl)cc1Cl,4000 mg/kg
8,COC(=O)C(C(C)=O)C(C)=O,1700 mg/kg
9,Cc1ccc2[nH]c(C(F)(F)F)nc2c1Br,64 mg/kg
10,O=S(=O)(O)C(F)(F)F,1610 mg/kg
11,Cc1c(F)c(F)c2nc(C(F)(F)F)[nH]c2c1F,3.94 mg/kg
12,CN1CCC2(C)c3cc(OC(=O)NCCCCCCCCN4CCOCC4)ccc3N(C)C12 (configuration not stated),23 mg/kg
13,CNC(=O)Oc1ccc(C)c(C)c1,290 mg/kg
14,CCCc1ccc(OC)cc1,4400 mg/kg
15,CCCCCCOC(C[n+]1ccccc1)c1ccc(C2CCCCC2)cc1 (configuration not stated),250 mg/kg
16,CN1CCCCC1CCN1c2ccccc2Sc2ccc(S(C)=O)cc21 (configuration not stated),644 mg/kg
17,"C[N+]1(CCF)[C@@H]2CC[C@H]1C[C@@H](OC(=O)C(O)(c1ccccc1)c1ccccc1)C2 (single isomer, unassigned)",740 mg/kg
18,C[C@@H]1C[C@H]2[C@@H]3CCC4=CC(=O)C=C[C@]4(C)[C@@]3(F)[C@@H](O)C[C@]2(C)[C@@]1(O)C(=O)COC(=O)c1ccncc1,3560 mg/kg
19,Cc1cccc(C)c1Nc1ncccc1C(=O)O,2.3 mg/kg
20,Cc1cccc(CN2CCN(C(c3ccccc3)c3ccc(Cl)cc3)CC2)c1 (configuration not stated),1750 mg/kg
21,O=C(Cc1ccc2c(c1)OCc1ccccc1C2=O)OCC(O)CO (configuration not stated),95 mg/kg
22,CC(=O)CCC=C(C)C,3500 mg/kg
23,FC(Cl)C(F)(Cl)Cl (configuration not stated),7800 mg/kg

row,SMILES,LD50
1,CCCCCCCCCCCCOC(=O)c1ccccc1,34500 mg/kg
2,COP(=S)(OC)Oc1ccc([N+](=O)[O-])c(SC(C)C)c1,1140 mg/kg
3,CCOP(=S)(OCC)SCCS(=O)(=O)CC,7.5 mg/kg
4,CCC(CC)C(=O)OCC(Br)(Br)Br,4000 mg/kg
5,C/N=N/Nc1ccc([N+](=O)[O-])cc1,468 mg/kg
6,CC(=O)OC1CCCCC1C(C)(C)C (configuration not stated),4600 mg/kg
7,O=C1NCc2ccccc2O1,1050 mg/kg
8,CCC(Cc1c(I)cc(I)c(N)c1I)C(=O)O (configuration not stated),2990 mg/kg and 1540 mg/kg
9,N#CCCN(CCN)CCN,4550 mg/kg
10,O=[N+]([O-])c1nccn1CC(O)CO (configuration not stated),5080 mg/kg
11,O=C(O)[C@@H]1CS[C@H](c2ccccc2O)N1C(=O)CCS,8290 mg/kg
12,Cl[Si](Cl)(Cl)c1ccccc1,2390 mg/kg
13,O=C1c2ccccc2C(=O)C1c1c(Cl)cccc1Cl,470 mg/kg
14,COCCOC(=O)C=CC(=O)OCCOC,3340 mg/kg
15,COC(=O)c1ccco1,300 mg/kg
16,NC(N)=NCC1CCCCCCN1 (configuration not stated),3550 mg/kg
17,NCC(O)c1ccc(O)c(O)c1 (configuration not stated),132 mg/kg
18,CCCC(CCC)C(C)NC(=O)CC (configuration not stated),700 mg/kg
19,O=C(c1ccc(O)cc1O)c1ccc(O)cc1O,1220 mg/kg
20,CC(=O)OCC#N,32 mg/kg
21,CC(O)CN(CC(C)O)c1nc(Nc2ccc(S(=O)(=O)O)cc2)nc(Nc2ccc(/C=C/c3ccc(Nc4nc(Nc5ccc(S(=O)(=O)O)cc5)nc(N(CC(C)O)CC(C)O)n4)cc3S(=O)(=O)O)c(S(=O)(=O)O)c2)n1 (configuration not stated),12100 mg/kg
22,CCCCCCCCCC(=O)OC1(c2ccc(Cl)cc2)CCN(CCCC(=O)c2ccc(F)cc2)CC1,1720 mg/kg
23,O=C(O)c1c(Cl)c(Cl)c(Cl)c(Cl)c1C1c2cc(Br)c(O)c(Br)c2Oc2c1cc(Br)c(O)c2Br,8400 mg/kg

row,SMILES,LD50
1,CCCCOc1ccc(CC(=O)NO)cc1,3370 mg/kg
2,NCCN1CCOCC1,3000 mg/kg
3,O=C(O)C1=Cc2sc(Cn3ccnc3)cc2CC1,1880 mg/kg
4,CCCCCOC(C[n+]1ccccc1)c1ccc(C(C)C)cc1 (configuration not stated),250 mg/kg
5,c1ccc(C2CCCCC2)c(OCCC2=NCCN2)c1,9.2 mg/kg
6,CC(C(=O)OCCCS(=O)(=O)O)c1ccc(-c2ccccc2)cc1 (configuration not stated),280 mg/kg
7,CNC(=O)Oc1ccccc1C1SCCS1,90 mg/kg
8,Cn1c(=O)c2c(ncn2CCCCCN2CCN(c3cccc(C(F)(F)F)c3)CC2)n(C)c1=O,660 mg/kg
9,CCCOC(C1=NCCN1)c1ccccc1 (configuration not stated),350 mg/kg
10,COc1ccc(OC)cc1,3600 mg/kg
11,CN=C(O)O/N=C1\SCOC1C(C)C (configuration not stated),16 mg/kg
12,Cc1nn(-c2cc(NS(C)(=O)=O)c(Cl)cc2Cl)c(=O)n1C(F)F,2860 mg/kg
13,CCOC(=O)c1cnn(C)c1-n1c(CC)nc2ccccc2c1=O,1820 mg/kg
14,COC(=O)c1cc(C(=O)OC)cc([N+](=O)[O-])c1,10000 mg/kg
15,CO[C@H]1C[C@H](O[C@H]2[C@H](C)[C@@H](O[C@@H]3O[C@H](C)C[C@H](N(C)C)[C@H]3O)[C@@H](C)C[C@]3(CO3)C(=O)[C@H](C)[C@@H](O)[C@@H](C)[C@@H](C)OC(=O)[C@@H]2C)O[C@@H](C)[C@@H]1O,6700 mg/kg
16,COc1ccc2c(c1OC)C(=O)O[C@@H]2[C@H]1c2c(cc3c(c2OC)OCO3)CCN1C,1520 mg/kg
17,CCN1C[C@]2(COC)[C@H](O)C[C@H](OC)[C@]34C1[C@H]([C@H](OC)[C@H]23)[C@]1(OC(C)=O)[C@H]2[C@@H](OC(=O)c3ccccc3)[C@](O)(C[C@H]24)[C@@H](OC)[C@@H]1O,5.97 mg/kg
18,CP(=O)(Oc1ccc([N+](=O)[O-])cc1)c1ccccc1 (configuration not stated),12.5 mg/kg
19,COC(COC(N)=O)C1=C(N2CC2)C(=O)C(C)=C(N2CC2)C1=O (configuration not stated),27.3 mg/kg
20,Cc1ccc2[nH]c(C(F)(F)F)nc2c1[N+](=O)[O-],7.75 mg/kg
21,CCC1(c2ccccc2)NC(=O)N(C)C1=O (configuration not stated),850 mg/kg
22,CN1C(=O)CCS(=O)(=O)C1c1ccc(Cl)cc1 (configuration not stated),605 mg/kg
23,c1ccc(N(CCN2CCCCC2)Cc2ccccn2)cc1,806 mg/kg and 740 mg/kg

row,SMILES,LD50
1,C[C@H](N)[C@H](O)c1cccc(O)c1,240 mg/kg
2,O=C[C@H](O)[C@@H](O)[C@H](O)[C@H](O)CO,25800 mg/kg
3,CCCCC(=O)Cc1ccccc1,4400 mg/kg
4,COc1cc(-c2ccc(N=Nc3c(O)ccc4ccccc34)c(OC)c2)ccc1N=Nc1ccc2c(S(=O)O)cc(S(=O)(=O)O)c(N)c2c1,6700 mg/kg
5,CCCN1C(=O)C2C3C=C(C(O)(c4ccccc4)c4ccccn4)C(C3=C(c3ccccc3)c3ccccn3)C2C1=O (configuration not stated),34.5 mg/kg
6,Nc1ccc(O)c(N)c1,240 mg/kg
7,CC(Cc1ccc(O)cc1)NCC(O)c1cc(O)cc(O)c1 (configuration not stated),1600 mg/kg
8,CC(O)c1cccc(N)c1 (configuration not stated),3100 mg/kg
9,C#CC(C)N(C)C(=O)Nc1ccc(Cl)cc1 (configuration not stated),1790 mg/kg
10,CCC(CC(C)CC)=NO (configuration not stated),3800 mg/kg
11,CC(C)N1C(=O)c2ccccc2NS1(=O)=O,1100 mg/kg
12,CCOP(=O)(OCC)SCSc1cc(Cl)ccc1Cl,38 mg/kg
13,CCC(C)c1ccc(Oc2ccc(C)cc2CC(=O)O)c(Cl)c1 (configuration not stated),1110 mg/kg
14,CCP(c1ccccc1)c1ccccc1,500 mg/kg
15,CCCCCCCCCc1cccc(OCCOCC(=O)O)c1,880 mg/kg
16,COc1cc(Oc2ccc(Cl)cc2Cl)ccc1[N+](=O)[O-],18000 mg/kg
17,CCN(CC)C(=O)c1nnn(-c2ccc(N)cc2)c1C,494 mg/kg
18,N#CCC(N)=O,3200 mg/kg
19,CC(CCO)CCO,7780 mg/kg
20,O=C1OCCN1/N=C/c1ccc([N+](=O)[O-])o1,2340 mg/kg
21,CC(C)=NNC(=O)CSc1cc(Oc2ccc(C)cc2)ncn1,900 mg/kg
22,CCCCSC(=Nc1cccnc1)SCc1ccc(C(C)(C)C)cc1,2700 mg/kg
23,CCOP(=S)(OCC)OC(C)C,1000 mg/kg

row,SMILES,LD50
1,CCCCC(CC)COS(=O)(=O)O (configuration not stated),4120 mg/kg
2,COc1cc(C)c2c(Oc3cccc(C(F)(F)F)c3)c(OC)cc(NC(C)CCCN)c2n1 (configuration not stated),416 mg/kg
3,COc1ccc(C)cc1N,1450 mg/kg
4,Cc1ccc(Oc2cc(SCC(=O)NN)ncn2)cc1,460 mg/kg
5,Nc1ccc(N=Nc2c(S(=O)(=O)O)cc3cc(S(=O)(=O)O)c(N=Nc4ccccc4)c(O)c3c2N)cc1,3000 mg/kg
6,COP(=S)(OC)SCSc1ccc(Cl)c(Cl)c1,220 mg/kg
7,CCCCC(CC)COC(=O)c1ccccc1C(=O)O (configuration not stated),1340 mg/kg
8,CC(C)CCON=O,505 mg/kg
9,c1ccc2[nH]ccc2c1,1000 mg/kg
10,CNC(=O)Oc1ccccc1C1OCC(C)O1 (configuration not stated),110 mg/kg
11,Cc1nc(N)nc(N)c1-c1ccc(Br)cc1,250 mg/kg
12,CCN(CC)CCNC(=O)c1cc([N+](=O)[O-])c(N(C)C)cc1OC,856 mg/kg
13,CCOP(=O)(OCC)SCCS(=O)(=O)CC,1.9 mg/kg
14,C=CC(C)(O)CC (configuration not stated),700 mg/kg
15,Cc1cc(-n2c(C)nc3ccccc3c2=O)n(-c2ccccc2)n1,1800 mg/kg
16,O=C1N(Cc2ccccc2)C2C[S+]3CCCC3C2N1Cc1ccccc1 (configuration not stated),2490 mg/kg
17,O=S(=O)(Cl)CCl,372 mg/kg
18,O=C(OCC=Cc1ccccc1)c1ccccc1,4000 mg/kg
19,COC(OC)c1ccccc1,1220 mg/kg
20,CCOP(=S)(OCC)SC(C#N)c1ccccc1 (configuration not stated),100 mg/kg
21,Cc1[nH]c2ccccc2c1C=CC1=[N+](C)c2ccccc2C1(C)C,2450 mg/kg
22,O=[N+]([O-])c1ccccc1O,334 mg/kg
23,CN(C)CCN(Cc1ccccc1)c1ccccn1,469 mg/kg

row,SMILES,LD50
1,O=C(Cl)c1ccc(Cl)cc1Cl,4640 mg/kg
2,CCC(OC(N)=O)c1ccccc1Cl (configuration not stated),710 mg/kg
3,C=CCOC(=O)Cc1ccccc1,650 mg/kg
4,C[N+]1(C)CCCC(OC(=O)C(O)(c2ccccc2)c2ccccc2)C1 (configuration not stated),742 mg/kg
5,Cc1cc(C)c(C)c(C)c1,5160 mg/kg
6,COP(=O)(OC)OC(C)=CC(=O)Oc1ccc(C)cc1,176 mg/kg
7,CCCCCCCCc1ccc(-c2ccc(C#N)cc2)cc1,2200 mg/kg
8,O=Cc1cccc2ccccc12,667 mg/kg
9,CO[Si](CCCNCCC[Si](OC)(OC)OC)(OC)OC,3780 mg/kg
10,N#CC1CCCCC1,80 mg/kg
11,CCCSP(=S)(OCC)Oc1ccc(Cl)cc1Cl (configuration not stated),875 mg/kg
12,COP(=S)(OC)SCn1nc(Cl)c(C)cc1=O,65 mg/kg
13,O=[N+]([O-])c1ccc(O)c2ncccc12,510 mg/kg
14,FC(F)(F)C(F)(F)C(F)(F)C(F)(F)C(F)(F)C(F)(F)CCI,3870 mg/kg
15,CCCCCCCCOC(C[n+]1ccccc1)c1ccc(C(C)(C)C)cc1 (configuration not stated),250 mg/kg
16,COc1cc(-n2ccnc2)ncn1,400 mg/kg
17,Oc1ccccc1-c1ccccc1,656 mg/kg and 1050 mg/kg
18,C1CCN2C[C@@H]3C[C@@H](C[C@H]2C1)N1CCCC[C@@H]31,960 mg/kg
19,CCN(CC)C(C)=O,1500 mg/kg
20,CN1CCC2(C)CC(Cc3ccc(O)cc32)C1 (configuration not stated),320 mg/kg
21,CN(c1nc2ccccc2s1)C1CCN(CCCCOc2ccc(F)cc2)CC1,154 mg/kg
22,Cc1ccc(C)c(O)c1,444 mg/kg
